# Experimental data as given in US11992497B2 (priority 2021, dated 2024).
# What was measured:
# Test in all cases: UGT reaction phenotyping, recombinant Supersomes
# UGT2B15 = molecular target: T1, UGT2B15 (Homo sapiens, UniProt P54855); settings: recombinant enzyme, pH 7.4
# T1 sequence (P54855 24-530): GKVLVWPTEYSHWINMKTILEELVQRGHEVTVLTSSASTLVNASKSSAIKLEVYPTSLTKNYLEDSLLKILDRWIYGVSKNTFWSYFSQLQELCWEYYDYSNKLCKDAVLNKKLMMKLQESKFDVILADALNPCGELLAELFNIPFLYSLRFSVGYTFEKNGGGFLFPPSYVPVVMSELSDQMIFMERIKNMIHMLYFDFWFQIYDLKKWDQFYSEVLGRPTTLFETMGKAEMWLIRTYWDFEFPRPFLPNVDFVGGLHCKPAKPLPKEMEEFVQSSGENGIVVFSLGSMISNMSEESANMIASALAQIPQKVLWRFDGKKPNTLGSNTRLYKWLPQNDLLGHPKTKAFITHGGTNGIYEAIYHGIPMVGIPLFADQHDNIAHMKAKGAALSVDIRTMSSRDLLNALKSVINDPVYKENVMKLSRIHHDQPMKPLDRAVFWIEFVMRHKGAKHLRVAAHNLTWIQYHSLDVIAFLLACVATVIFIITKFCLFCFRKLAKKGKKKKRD
# Procedure: (§1) Experimental Summary: UGT Reaction Phenotyping (7 Isoforms).
# (§2) Experimental Procedure: cDNA expressed human UGT enzyme preparations (Supersomes) supplied by BD Biosciences were obtained and stored at −80° C. prior to use. The specific isoforms were chosen by the performing laboratory based on published guidelines. They are considered the clinically relevant of the UGT isoforms (E. Kasteel et al. Human variability in isoform-specific UDP-glucuronosyltransferases: markers of acute and chronic exposure, polymorphisms and uncertainty factors. Arch Toxicol. 2020; 94(8): 2637-2661)
# (§3) Supersomes in 0.1 M Tris buffer pH 7.4, alamethicin (44.6 μg/mL) and test compound (final concentration of 5 μM; final DMSO concentration ≤0.1%) were pre-incubated at 37° C. prior to the addition of UDGPA (final concentration 2 mM) to initiate the reaction. Incubations were also performed using control Supersomes (no UGT enzymes present) to reveal any non-enzymatic degradation. Compounds known to be metabolized specifically by each UGT isoform were used as control compounds (7-hydroxy-4-trifluoromethylcoumarin, all but UGT1A4, or trifluoperazine for UGT1A4).
# (§4) CBG or Compound 1 were incubated in duplicate for 0, 10, 20, 40 and 60 min with each isoform. The reactions were stopped by the addition of methanol containing an analytical internal standard at the time points specified in the table above. Stopped reactions were kept on ice for at least ten minutes and the samples were centrifuged to remove precipitated protein. Supernatants were analyzed by LC-MS/MS methodology developed by the performing laboratory to quantitate the parent remaining.
# (§5) The change in CBG concentration were used to calculate the Half life (t1/2 in min) and the intrinsic clearance ([…]) as shown in the following table (S. C, Khojasteh et.al., Drug Metabolism and Pharmacokinetics Quick Guide, Springer, NY, 2011), Intrinsic Clearance (CIint) is a measure of the ability of hepatocytes to eliminate drug irrespective other factors such as blood flow or protein binding. The calculations were the same as those used in Example 3A.
# UGT1A6 = molecular target: T2, UGT1A6 (Homo sapiens, UniProt P19224); settings: recombinant enzyme, pH 7.4
# T2 sequence (P19224 27-532): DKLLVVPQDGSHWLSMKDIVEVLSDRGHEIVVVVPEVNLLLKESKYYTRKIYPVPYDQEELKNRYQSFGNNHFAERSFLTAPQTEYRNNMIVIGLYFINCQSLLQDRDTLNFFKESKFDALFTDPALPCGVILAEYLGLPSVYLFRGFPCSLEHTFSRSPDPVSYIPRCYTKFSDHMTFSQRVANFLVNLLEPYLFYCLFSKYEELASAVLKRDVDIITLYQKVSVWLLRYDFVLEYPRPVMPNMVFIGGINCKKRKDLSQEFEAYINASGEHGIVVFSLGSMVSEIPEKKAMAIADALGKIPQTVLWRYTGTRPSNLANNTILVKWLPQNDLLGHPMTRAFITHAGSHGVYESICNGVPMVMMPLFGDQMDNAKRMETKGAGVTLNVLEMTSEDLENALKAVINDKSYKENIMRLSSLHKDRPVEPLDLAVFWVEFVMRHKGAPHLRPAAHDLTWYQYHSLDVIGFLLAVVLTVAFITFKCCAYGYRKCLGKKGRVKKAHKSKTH
# Procedure: as §1, §2, §3, §4, §5
# UGT1A3 = molecular target: T3, UGT1A3 (Homo sapiens, UniProt P35503); settings: recombinant enzyme, pH 7.4
# T3 sequence (P35503 29-534): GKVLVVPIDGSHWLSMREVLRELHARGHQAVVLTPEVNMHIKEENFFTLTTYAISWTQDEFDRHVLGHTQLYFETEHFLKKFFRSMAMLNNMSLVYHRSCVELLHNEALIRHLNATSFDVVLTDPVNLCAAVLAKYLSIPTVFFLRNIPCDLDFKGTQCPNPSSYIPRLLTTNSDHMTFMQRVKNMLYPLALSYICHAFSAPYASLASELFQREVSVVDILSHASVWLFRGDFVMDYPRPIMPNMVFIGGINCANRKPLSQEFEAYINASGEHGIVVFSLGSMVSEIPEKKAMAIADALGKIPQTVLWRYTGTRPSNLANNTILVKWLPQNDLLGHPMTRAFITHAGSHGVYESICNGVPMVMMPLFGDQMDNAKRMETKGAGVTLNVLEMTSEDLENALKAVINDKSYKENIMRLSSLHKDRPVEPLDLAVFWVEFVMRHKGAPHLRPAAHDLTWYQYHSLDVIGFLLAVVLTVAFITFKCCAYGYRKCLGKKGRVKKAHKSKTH
# Procedure: as §1, §2, §3, §4, §5
# UGT2B7 = molecular target: T4, UGT2B7 (Homo sapiens, UniProt P16662); settings: for half-life at 1 µM / microsomal CLint at 1 µM: human, recombinant enzyme, pH 7.4
# T4 sequence (P16662 24-529): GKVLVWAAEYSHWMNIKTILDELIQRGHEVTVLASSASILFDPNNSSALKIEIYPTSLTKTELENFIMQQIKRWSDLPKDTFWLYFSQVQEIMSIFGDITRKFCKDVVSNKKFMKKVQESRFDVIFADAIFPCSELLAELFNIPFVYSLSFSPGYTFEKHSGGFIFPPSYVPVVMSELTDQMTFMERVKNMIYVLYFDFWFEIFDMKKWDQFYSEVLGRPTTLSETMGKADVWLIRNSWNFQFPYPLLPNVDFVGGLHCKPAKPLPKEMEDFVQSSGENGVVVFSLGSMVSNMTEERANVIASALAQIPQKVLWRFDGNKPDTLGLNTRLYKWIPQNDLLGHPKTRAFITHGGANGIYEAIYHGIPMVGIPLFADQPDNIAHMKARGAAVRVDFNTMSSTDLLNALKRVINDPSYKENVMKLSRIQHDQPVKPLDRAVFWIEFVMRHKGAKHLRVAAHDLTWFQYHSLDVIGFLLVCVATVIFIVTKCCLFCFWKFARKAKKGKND
# Procedure: as §1, §2, §3, §4, §5
SMILES,half-life at 1 µM (UGT2B15) [min],microsomal CLint at 1 µM (UGT2B15) [µL/min/mg],half-life at 1 µM (UGT1A6) [min],microsomal CLint at 1 µM (UGT1A6) [µL/min/mg],half-life at 1 µM (UGT1A3) [min],microsomal CLint at 1 µM (UGT1A3) [µL/min/mg],half-life at 1 µM (UGT2B7) [min],microsomal CLint at 1 µM (UGT2B7) [µL/min/mg],activity of UGT2B7 relative to UGT1A9 (UGT2B7; CBG as substrate)
"CCCCCc1cc(O)c(C/C=C(\C)CCC=C(C)C)c(OC)c1 [Compound 1, (E)-2-(3,7-dimethylocta-2,6-dien-1-yl)-3-methoxy-5-pentylphenol]",57.2,24.2,> 240,< 2.89,108,12.8,24.8,55.9,–
"CCCCCc1cc(O)c(C/C=C(\C)CCC=C(C)C)c(O)c1 [CBG, cannabigerol]",47.6,29.1,95,14.6,44.1,31.4,17.9,77.5,approximately 1/10
"O=c1cc(C(F)(F)F)c2ccc(O)cc2o1 [7-OH4trifluoromethylcoumarin, 7-hydroxy-4-trifluoromethylcoumarin]",24.9,55.8,6.41,216,51.8,26.8,50.4,27.5,–
